This passage reports TGI results from PubChem BioAssay (NCI).

Test systems include OVCAR-4 ovarian; SK-MEL-2 melanoma; BT-549 breast; HCT-116 colon; UACC-257 melanoma; HOP-92 NSCLC; T-47D breast; SN12C renal; SF-539 CNS; U251 CNS.
Holding throughout (test): growth of human tumour cells (NCI), 48 h

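In this assay, cells in 96-well plates receive the compound at five concentrations for 48 hours. Endpoints are linearly interpolated between the surrounding concentrations. TGI denotes the concentration required for complete inhibition of growth.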 Where a SMILES comes first, the peptide text is derived from it. The star is where a group is joined. Boc = CC(C)(C)OC(=O)*; OtBu = CC(C)(C)O* Where only a bound is given, the exact number is not on record here.

As to `COC(=O)[C@]1(CCC(C)=O)C(=O)C=CN([C@H](C)c2ccccc2)[C@@H]1Cc1ccc(OC)c(OCc2ccccc2)c1I`, the TGI was more than 100 µM in the assay on OVCAR-4 ovarian; 31.7 µM with SK-MEL-2 melanoma; 46.3 µM with BT-549 breast; 27 µM in the assay with HCT-116 colon; 32.6 µM in the assay with UACC-257 melanoma; 21.3 µM in the assay on HOP-92 NSCLC. The TGI worked out at 49.4 µM with T-47D breast, 35 µM in the assay with SN12C renal, 32.9 µM with SF-539 CNS and 33.9 µM in the assay with U251 CNS.

Turning to `COC1=C(OC)C(=O)c2cc(C)c(=O)c(C)cc2C1=O`, the TGI with OVCAR-4 ovarian came to 7.64 µM; in the assay on SK-MEL-2 melanoma, 36.8 µM; in the assay on BT-549 breast, 28.5 µM; in the assay with HCT-116 colon, 28.9 µM; in the assay on UACC-257 melanoma, 25.6 µM; in the assay with HOP-92 NSCLC, 30.4 µM. In addition, the TGI with T-47D breast was more than 55.4 µM; with SN12C renal it was 7.08 µM; in the assay on SF-539 CNS it was 33.1 µM; in the assay on U251 CNS, 31 µM.

For the molecule `CCOC(=O)c1sc(N)nc1N1CCCC1`, the TGI in the assay on OVCAR-4 ovarian, in the assay on SK-MEL-2 melanoma, in the assay with BT-549 breast, with HCT-116 colon, in the assay on UACC-257 melanoma and in the assay with HOP-92 NSCLC was more than 100 µM in each case. Also, the TGI in the assay on T-47D breast, in the assay with SN12C renal, in the assay with SF-539 CNS and in the assay on U251 CNS was more than 100 µM throughout.

Consider `CC(C)(C)OC(=O)CC(NC(=O)OC(C)(C)C)C(=O)NC(Cc1ccccc1)C(N)=O` (stereo not drawn) (Boc-Asp(OtBu)-Phe-NH2; configuration not given here), for which the TGI in the assay with OVCAR-4 ovarian, in the assay with SK-MEL-2 melanoma, in the assay with BT-549 breast, in the assay with HCT-116 colon, with UACC-257 melanoma and with HOP-92 NSCLC was more than 100 µM throughout. Besides, the TGI in the assay with T-47D breast, in the assay on SN12C renal, in the assay on SF-539 CNS and with U251 CNS was more than 100 µM throughout.

Take `CC(=O)OC1=C(c2ccccc2)S(=O)(=O)c2ccccc21`: the TGI with OVCAR-4 ovarian, with SK-MEL-2 melanoma, in the assay with BT-549 breast, with HCT-116 colon, in the assay on UACC-257 melanoma and with HOP-92 NSCLC was more than 100 µM each time. Also, the TGI with T-47D breast, in the assay with SF-539 CNS and in the assay on U251 CNS was more than 100 µM in each case.

With `C[C@H]1CC(=O)C[C@@H]2CC[C@@H]3[C@H](CC[C@]4(C)C(OC(=O)c5cccc6c(=O)c7ccccc7[nH]c56)CC[C@@H]34)[C@]21C` (stereo partly drawn), the TGI with OVCAR-4 ovarian was more than 100 µM; in the assay with SK-MEL-2 melanoma, more than 100 µM; in the assay on BT-549 breast, more than 100 µM; with HCT-116 colon, more than 100 µM; with UACC-257 melanoma, more than 100 µM; in the assay with HOP-92 NSCLC, 70.8 µM. Moreover, the TGI with T-47D breast, in the assay with SN12C renal, with SF-539 CNS and in the assay on U251 CNS was more than 100 µM each time.

For the molecule `CC(=O)O[C@H]1CC[C@@]2(C)C(=CC[C@@H]3[C@@H]2CC[C@]2(C)C(=O)/C(=C\c4ccccc4)C[C@@H]32)C1`, the TGI in the assay with OVCAR-4 ovarian, in the assay with SK-MEL-2 melanoma, with BT-549 breast, in the assay on HCT-116 colon, in the assay on UACC-257 melanoma and with HOP-92 NSCLC was more than 100 µM in each case. The TGI in the assay on T-47D breast, in the assay with SN12C renal, in the assay with SF-539 CNS and in the assay on U251 CNS was more than 100 µM throughout.

For the molecule `CCOC(=O)n1c(=O)nc2c3c(ncn21)Oc1c(c(-c2ccccc2)nn1-c1ccccc1)C3c1ccc(Cl)cc1` (stereo not drawn), the TGI in the assay with OVCAR-4 ovarian was determined as 2.47 µM; in the assay with SK-MEL-2 melanoma, 3.23 µM; in the assay with BT-549 breast, 2.95 µM; in the assay on HCT-116 colon, 2.82 µM; in the assay on UACC-257 melanoma, 3.42 µM; in the assay on HOP-92 NSCLC, 2.85 µM. Moreover, the TGI is 3.15 µM with T-47D breast, 3.21 µM in the assay on SN12C renal, 2.9 µM in the assay with SF-539 CNS and 3.06 µM in the assay with U251 CNS.

`NC(C(=O)O)C(O)c1cnc[nH]1` (stereo not drawn): the TGI with OVCAR-4 ovarian, in the assay on SK-MEL-2 melanoma, in the assay on BT-549 breast, in the assay with HCT-116 colon, with UACC-257 melanoma and in the assay on HOP-92 NSCLC was more than 100 µM each time. In addition, the TGI in the assay on T-47D breast, in the assay with SN12C renal, in the assay with SF-539 CNS and in the assay on U251 CNS was more than 100 µM each time.

For the molecule `O=C(O)c1ccc2nc(-c3ccccn3)c(-c3ccccn3)nc2c1`, the TGI in the assay with OVCAR-4 ovarian, in the assay with SK-MEL-2 melanoma, with BT-549 breast, in the assay with HCT-116 colon, in the assay with UACC-257 melanoma and in the assay with HOP-92 NSCLC was more than 100 µM each time. The TGI in the assay on T-47D breast, with SF-539 CNS and in the assay with U251 CNS was more than 100 µM throughout.

Regarding `CN(C)CCC(C#N)(c1ccccc1)c1ccccc1`, the TGI with OVCAR-4 ovarian is more than 100 µM; in the assay with SK-MEL-2 melanoma it was more than 100 µM; in the assay on BT-549 breast it was more than 100 µM; in the assay on HCT-116 colon, more than 100 µM; in the assay with UACC-257 melanoma, 59.2 µM; in the assay with HOP-92 NSCLC it was 66.6 µM. Besides, the TGI in the assay on T-47D breast, with SN12C renal, in the assay on SF-539 CNS and with U251 CNS was more than 100 µM each time.

For `N#CC(C#N)=CNC(=S)Nc1ccc(S(=O)(=O)Nc2nccs2)cc1`, the TGI with OVCAR-4 ovarian, in the assay with SK-MEL-2 melanoma, with BT-549 breast, with HCT-116 colon, with UACC-257 melanoma and in the assay with HOP-92 NSCLC was more than 100 µM throughout. Also, the TGI in the assay on T-47D breast, in the assay with SN12C renal, with SF-539 CNS and in the assay on U251 CNS was more than 100 µM in each case.

Regarding `O=[N+]([O-])C1=Cc2c(O)ccc(O)c2C2c3ccccc3NC12` (stereo not drawn), the TGI was 30.1 µM in the assay with OVCAR-4 ovarian; 40.1 µM in the assay with SK-MEL-2 melanoma; 25.8 µM in the assay with BT-549 breast; 22.7 µM in the assay on HCT-116 colon; 29.3 µM in the assay with UACC-257 melanoma; 20.7 µM with HOP-92 NSCLC. Moreover, the TGI in the assay with T-47D breast is more than 55.8 µM; in the assay on SN12C renal it was 30.9 µM; in the assay with SF-539 CNS it was 63 µM; with U251 CNS, 29.4 µM.
